Test results from paper PMC7002685, “Inhibition of vascular calcification by inositol phosphates derivatized with ethylene glycol oligomers” (Nature Communications, 2020).
Where “and” joins values, the source holds several entries; their conditions need not be identical. Identical values can stand only once.

What was measured:
[1] = Serum PTH and FGF-23 in adenine model; format: in vivo, rat
Excerpt: However, clearly the bone mineralization may be affected by the mode of action. The effects of the compound on the bone is not sufficiently investigated, and this limitation not sufficiently discussed, since similar to the adenin model, CKD patients may be the prime patient population for treatment. The bone structure should be documented by µCT. Is there an effect of the compound on the mechanical properties? Am I missing the effects of the compound on bone in healthy animals – this would seem decisive?
In response to the reviewer’s comment we investigated the (3D) bone structure of vehicle and (OEG2)2-IP4 treated CKD animals by µCT analysis and compared the results to that of bone samples from control (non-CKD) male Wistar rats of the same age. […]
because of (1) ethical considerations (aiming to limit the number of animals), (2) the primary end-point of the study was to evaluate the effect of (OEG2)2-IP4 on the development of vascular calcification, which was of no relevance for control (non-CKD) animals as they do not develop vascular calcification. […]
In response to the reviewer’s comment we measured concentrations of PTH and FGF-23 in the serum of CKD animals of vehicle and (OEG2)2-IP4 groups both at baseline and at sacrifice. […]

[2] = system: Glutamate, NMDA, Phencyclidine; assay: Off-target 233000; format: binding, Rat; details: 10 µM
Experimental: The potential off-target activity of 10 µM (OEG2)2-IP4 was assessed against a panel of 87 enzymes, receptors, or ion channels that are used in standard safety pharmacology screens.
3.2. Off-target screening assay
The experiments were conducted by a contract research organization (Eurofins Panlabs Discovery Services Taiwan, Ltd.) and details on the respective assays can be retrieved via the catalog number provided in Supplementary Table 11 from the company’s webpage
(https://www.eurofinsdiscoveryservices.com/). […]
At sacrifice the left tibia of animals of the rat model with dietary adenine/high-phosphate-induced uremia and VC was collected, fixed with 70% v/v EtOH and embedded in methyl methacrylate. The trabecular bone compartment is known to be the most metabolic active i.e. actively re-structured bone compartment in CKD. Therefore, histomorphometric and micro-computed tomography (µCT) analysis of bone was performed on the trabecular compartment. Tibial sections were Goldner-stained for histomorphometric analysis of the proximal metaphysis using the AxioVision Release 4.5 software, as […]
described previously5. […]

[3] = 18F-NaF micro-PET/CT uptake on calcified human femoral arteries ex vivo; format: binding
Experimental: To investigate (OEG2)2-IP4 interaction with calcified tissues in a clinically relevant context, a competitive binding assay using ^18F-NaF was applied on severely calcified human femoral arteries and native aortic valves ex vivo. […] First, ^18F-NaF uptake was measured on tissue samples treated with vehicle (human serum) and thereafter, using the same tissue samples, treated with (OEG2)2-IP4 in serum.
Triplicate aliquots of CPP2s (20 µg Ca/mL) in 100 μL assay buffer (100 mM HBS, pH 7.4 (RT)) were incubated for 1 h at RT in the presence of increasing concentrations of compounds in 50 μL Milli-Q water and ^18F-NaF (1 nM) in 50 μL assay buffer, resulting in a total incubation volume of 200 μL (^18F-NaF was prepared using a FASTlab synthesizer (GE Healthcare, Little Chalfont, UK) and commercially available ^18F-NaF cassettes (GE Healthcare)). Maximum radiotracer binding was determined by incubating CPP2s with ^18F-NaF (1 nM) only. The reaction was terminated by rapid filtration through a SOLAμ™ SPE plate (HRP 2 mg/mL 96-well plate, 22 μm; Thermo Fisher Scientific). SPE individual column matrices were washed twice rapidly in assay buffer and radioactivity on the filters determined by an automatic gamma counter (Wizard2 Gamma Counter, Perkin Elmer, Waltham, MA, USA). […]

SMILES: COCCOCCO[C@@H]1[C@@H](OP(=O)(O)O)[C@H](OCCOCCOC)[C@@H](OP(=O)(O)O)[C@@H](OP(=O)(O)O)[C@H]1OP(=O)(O)O [(OEG2)2-IP4, 4,6-Di-O-(methoxy-diethyleneglycol)-myo-inositol-1,2,3,5-tetrakis(phosphate)]
- serum PTH levels ([1]; 5, 15, 50 mg/kg): did not differ between treatment groups
- serum FGF-23 compared to vehicle ([1]; lowest (5 mg/kg) dose): significantly higher
- % Inhibition [2]: 7%
- change of 18F-NaF uptake vs vehicle ([3]; 8.6 μM in human serum): −38%
- maximum average 18F binding (18F-NaF-PET) ([3]; IC90 concentration in human serum, individual samples Fig. 3j, unit not given): 319.764 and 464.582 and 653.422 and 447.312 and 563.189 and 486.153 and 450.235
